According to patent US20230025377A1, “COMPOSITIONS AND METHODS FOR TREATING OR PREVENTING PRURITUS” (HLB THERAPEUTICS CO., LTD., priority 2020, published 2023):
Values joined by “and” are separate entries in the source; they are usually repeats but may differ in a detail not shown here. Identical values can stand only once. “Also recorded” adds a separate entry of the source.

Key:
Assay type in all cases: cell-based, human
[1] = test system: HMC-1 cells; assay: Histamine release in PMACI-treated HMC-1 cells (ELISA); conditions: for Histamine release: mean ± S.E.
Method: (§1) Cell culture: Human Mast Cell Line (HMC-1) cells (ATCC, Manassas, Va., USA) were maintained in IMDM (Iscove's Modified Dulbecco's Media) medium (Thermo Fisher Scientific) containing 10% fetal bovine serum (FBS; Hyclone, GE Healthcare Life Sciences) and 1% penicillin-streptomycin (Sigma-Aldrich, St. Louis, Mo., USA) in a 37° C. humidified incubator with 5% CO2. The medium was changed every 2-3 days.
(§2) HMC-1 cell treatment: HMC-1 cells were seeded in 12-well plates at a density of 7×10^5 cells per well and exposed to Tβ4 (1, 1.5, 3, and 6 μg/mL) for 1 hour before treatment with phorbol 12-myristate 13-acetate plus A23187 (PMACI; 30 nM of PMA plus 1.5 μM of A23187) to induce degranulation (activation) of mast cells and incubated at 37° C. After 2.5 hours, the medium was centrifuged (Hanil, UNION 32R PLUS) for 20 minutes at 1000×g. The supernate was transferred to another tube.
Allergic reaction factors: Histamine (HIS), Leukotrien B4 (LTB4), and Prostaglandin E2 (PGE2) amounts were evaluated to determine the effects of the disclosed composition on the release of allergic reaction factors. Histamine levels were measured using the HIS (Histamine) ELISA kit (Elabscience, Huston, Tex., USA) on the supernate of the culture medium. 50 μL of the sample was added to 96-plate wells, then 50 μL of Biotinylated Detection Ab working solution was added and incubated at 37° C. for 45 minutes. 100 μL of HRP Conjugate working solution was added and incubated at 37° C. for 30 minutes. 90 μL of Substrate reagent was added and incubated at 37° C. for 15 minutes. Washing was performed between each step. 50 μL of stop solution was added without washing. Absorbance was measured at 450 nm with a spectrophotometer (Biotek, PowerWave XS2, Winooski, Vt., USA).

[2] = test system: HMC-1 cells; assay: Leukotrien B4 (LTB4) release in PMACI-treated HMC-1 cells (ELISA); conditions: for Leukotrien B4 release: mean ± S.E.
Method: as §1, §2
The leukotriene B4 amount was measured using the LTB4 (Leukotriene B4) ELISA kit (MybioSource, San Diego, Calif., USA) on the supernate of the culture medium. 50 μL of the sample was added to 96-plate wells, then 50 μL of Biotinylated Detection Ab working solution was added and incubated at 37° C. for 45 minutes. 100 μL of HRP Conjugate working solution was added and incubated at 37° C. for 30 minutes. 90 μL of Substrate reagent was added and incubated at 37° C. for 15 minutes. Washing was performed between each step. 50 μL of stop solution was added without washing. Absorbance was measured at 450 nm with a spectrophotometer (Biotek, PowerWave XS2, Winooski, Vt., USA).

[3] = test system: HMC-1 cells; assay: Prostaglandin E2 (PGE2) release in PMACI-treated HMC-1 cells (ELISA); conditions: for PGE2 release: mean ± S.E.
Method: as §1, §2
The prostaglandin E2 (PGE2) amount was measured using a human PGE2 ELISA kit (Abeam, Cambridge, Mass.) on the supernate of the culture medium. 100 μL of the sample was added to 96-plate wells, then 50 μL of PGE2 Alkaline Phosphatase Conjugate was added. 50 ul of PGE2 Antibody was added and incubated on a shaker at room temperature for 45 minutes. 200 μL of pNPP substrate solution was added and incubated at 37° C. for 30 minutes. 90 μL of Substrate reagent was added and incubated at room temperature for 45 minutes. Washing was performed between each step. 50 μL of stop solution was added without washing. Absorbance was measured at 405 nm with a spectrophotometer (Biotek, PowerWave XS2, Winooski, Vt., USA).

[4] = test system: HMC-1 cells; assay: IL-4 release in PMACI-treated HMC-1 cells (ELISA); conditions: for IL-4 release: mean ± S.E.
Method: as §1, §2
(§3) Inflammatory cytokines: IL-4, IL-13, and TNF-α amounts were evaluated to determine the effects of the disclosed composition on the release of inflammatory cytokines. IL-4 and IL-13 amounts were measured using Human IL-4 (ab100570) and IL-13 (ab100553) ELISA kit (Abeam, Cambridge, Mass.) on the supernate of the culture medium. 100 μL of the sample was added to 96-plate wells, then 100 μL of Biotinylated IL-4 and IL-13 detection antibody were added and incubated at room temperature for 1 hour. 100 μL of HRP-streptavidin solution was added and incubated at room temperature for 45 minutes. 100 μL of TMB one step substrate reagent was added and incubated at room temperature for 30 minutes. Washing was performed between each step and incubated on a shaker. Finally, 50 μL of stop solution was added without washing. Absorbance was measured at 450 nm with a spectrophotometer (Biotek, PowerWave XS2, Winooski, Vt., USA).

[5] = test system: HMC-1 cells; assay: IL-13 release in PMACI-treated HMC-1 cells (ELISA); conditions: for IL-13 release: PMACI-treated HMC-1 cells, mean ± S.E.
Method: as §1, §2, §3

[6] = test system: HMC-1 cells; assay: TNF-α release in PMACI-treated HMC-1 cells (ELISA); conditions: for TNF-α release: PMACI-treated HMC-1 cells, mean ± S.E.
Method: as §1, §2
The TNF-α amount was measured using a human TNF-alpha ELISA kit (Abeam, Cambridge, Mass.) on the supernate of the culture medium. 100 μL of the sample was added to 96-plate wells, then 50 μL of Biotinylated TNF alpha detection antibody was added and incubated at room temperature for 3 hours. 100 μL of HRP-streptavidin solution was added and incubated at room temperature for 30 minutes. 100 μL of Chromogen TMB substrate solution was added and incubated at room temperature of the light-shielding state for 20 minutes. Washing was performed between each step and incubated on a shaker. 50 μL of stop solution was added without washing. Absorbance was measured at 450 nm with a spectrophotometer (Biotek, PowerWave XS2, Winooski, Vt., USA).

[7] = Tβ4 1 μg/ml, PMACI-treated HMC-1 cells
[8] = Tβ4 1.5 μg/ml, PMACI-treated HMC-1 cells
[9] = Tβ4 3 μg/ml, PMACI-treated HMC-1 cells
[10] = Tβ4 6 μg/ml, PMACI-treated HMC-1 cells

thymosin beta 4 (SDKPDMAEIEKFDKSKLKKTETQEKNPLPSKETIEQEKQAGES; Thymosin beta-4; UniProt P62328 2-44, looked up) [Tβ4, human protein; polypeptide composed of 43 amino acids having 4.9 kDa]
Tβ4 concentration with inhibitory effect on histamine release ([1]; PMACI-treated HMC-1 cells): above 1 μg/ml | Tβ4 concentration with the best effect of suppressing the increase of HIS release ([1]; PMACI-treated HMC-1 cells): 3 µg/mL | Histamine release [1, 7]: 25.96 ± 0.78 pg/mL | Histamine release [1, 8]: 23.91 ± 0.36 pg/mL | Histamine release [1, 9]: 22.00 ± 1.10 pg/mL | Histamine release [1, 10]: 23.46 ± 0.55 pg/mL | Amount of HIS released compared to PMACI alone ([1]; Tβ4 1, 1.5, 3, 6 μg/ml (1-6 μg/ml), p<0.01): significant inhibitory effect; also recorded: significantly decreased | Amount of HIS released compared to PMACI alone ([1]; Tβ4 less than 1 μg/ml): no significant difference | Tβ4 concentration most effective in inhibiting the increase of LTB4 release ([2]; PMACI-treated HMC-1 cells): 1.5 µg/mL and 3 µg/mL | Tβ4 concentration with inhibitory effect on LTB4 release ([2]; PMACI-treated HMC-1 cells): above 1.5 μg/ml | Leukotrien B4 release [2, 8]: 29.94 ± 1.97 pg/mL | Leukotrien B4 release [2, 9]: 28.91 ± 2.10 pg/mL | Leukotrien B4 release [2, 10]: 32.06 ± 2.44 pg/mL | Release level of LTB4 compared with PMACI treatment alone ([2]; Tβ4 1-6 μg/ml): significantly decreased | Amount of LTB4 released compared to PMACI alone ([2]; Tβ4 1.5 and 3 μg/ml, p<0.05): significant inhibitory effect | Tβ4 concentration most effective in inhibiting the increase of PGE2 release ([3]; PMACI-treated HMC-1 cells): 3 µg/mL | Tβ4 concentration with inhibitory effect on PGE2 release ([3]; PMACI-treated HMC-1 cells): above 3 μg/ml | PGE2 release [3, 8]: 97.43 ± 2.56 pg/mL | PGE2 release [3, 9]: 94.96 ± 0.87 pg/mL | Amount of PGE2 released compared to PMACI alone ([3]; Tβ4 3 μg/ml, p<0.05): significant inhibitory effect | PGE2 release [3, 10]: 106.00 ± 3.13 pg/mL | Release level of PGE2 compared with PMACI treatment alone ([3]; Tβ4 1-6 μg/ml): significantly decreased | Tβ4 concentration with inhibitory effect on IL-4 release ([4]; PMACI-treated HMC-1 cells): above 1.5 μg/ml | IL-4 release [4, 7]: 88.27 ± 10.18 pg/mL | IL-4 release [4, 8]: 79.77 ± 4.27 pg/mL | IL-4 release [4, 9]: 65.43 ± 7.20 pg/mL | IL-4 release [4, 10]: 64.01 ± 3.02 pg/mL | Release level of IL-4 compared with PMACI treatment alone ([4]; Tβ4 1-6 μg/ml): significantly decreased | Amount of IL-4 released compared to PMACI alone ([4]; Tβ4 1.5, 3, and 6 μg/ml, p<0.05): significant inhibitory effect | IL-13 release ([5]; Tβ4 1 μg/ml): 30.07 ± 2.33 pg/mL | IL-13 release ([5]; Tβ4 1.5 μg/ml): 28.52 ± 2.83 pg/mL | IL-13 release ([5]; Tβ4 3 μg/ml): 28.22 ± 2.33 pg/mL | IL-13 release ([5]; Tβ4 6 μg/ml): 26.98 ± 2.45 pg/mL | Amount of IL-13 released compared to PMACI alone ([5]; Tβ4 1, 1.5, 3, and 6 μg/ml (1-6 μg/ml), p<0.05): significant inhibitory effect; also recorded: significantly decreased | TNF-α release ([6]; Tβ4 1 μg/ml): 513.77 ± 17.85 pg/mL | TNF-α release ([6]; Tβ4 1.5 μg/ml): 380.23 ± 7.97 pg/mL | Reduction of TNF-α release compared to PMACI alone ([6]; Tβ4 3 μg/ml): reduced 37.4% | TNF-α release ([6]; Tβ4 3 μg/ml): 379.42 ± 8.03 pg/mL | Reduction of TNF-α release compared to PMACI alone ([6]; Tβ4 6 μg/ml): 37.1% | TNF-α release ([6]; Tβ4 6 μg/ml): 381.46 ± 12.75 pg/mL | Amount of TNF-α released compared to PMACI alone ([6]; Tβ4 1, 1.5, 3, and 6 μg/ml (1-6 μg/ml), p<0.01): significant inhibitory effect; also recorded: significantly decreased
